# According to patent US20140371267A1, “OPHTHALMIC COMPOSITION WITH NITRIC OXIDE DONOR COMPOUND AND METHOD OF FORMING AND USING SAME” (ALCON RESEARCH, LTD., priority 2009, published 2014):
# How the values were obtained:
# [1] = vasodilators; cited from earlier work
# ARPE-19 cells = experiment: 7-ketocholesterol-induced RPE cell death, WST-1 cell viability; assay type: cell-based; settings: for % Survival: compared to media-treated cells
# Method: Compound 1 was evaluated for its ability to prevent 7-ketocholesterol-induced retinal pigmented epithelial (RPE) cell death in vitro. ARPE-19 cells were grown in DMEM:F12 (Invitrogen) (1:1) with 10% FBS (HyClone) and 56 mM Na Bicarbonate (Gibco) in a 10% CO2 humidified 37° C. incubator. Cells were split at a ratio of 1:3 once per week and fed every 2-3 days. ARPE-19 cells were plated at a density of 12,500 cells per well in 100 μL, which is approximately […].
# 7-ketocholesterol (5-CHOLESTEN-3β-OL-7-ONE) and Cholesterol (5-CHOLESTEN-3β-OL) (Steraloids, Inc., Newport R.I.) were resuspended in 37° C. 45% 2-hydroxylpropyl-β-cyclodextrin at a concentration of 10 mM. Working dilutions of 1 mM are subsequently made in 37° C. DMEM:/F12 containing 0.1% FBS and NaBicarb. Further dilutions (5 to 30 μM) for treatment were also made in 37° C. DMEM:F12 with 0.1% FBS and NaBicarb to maintain activity of the 7-ketocholesterol. As negative controls, vehicle alone and cholesterol suspended in 2-HP-β-cyclodextrin were included in each experiment.
# Cell proliferation reagent WST-1 (Roche), a tetrazolium salt that is cleaved to formazan through the mitochondrial succinate-tetrazolium-reductase system in live cells, was used as a measure of cell viability. Cells were treated with 7-ketocholesterol for 1 day, at which time 10 μL at of WST-1 reagent was added to each well containing 100 μL at of media. The plates were then incubated for 1-4 hours to allow for adequate color development and then absorbance was read in a microplate ELISA reader at […]. WST reagent was also added to one set of control wells containing media only. These readings were subtracted from each of the WST readings as background. Cell viability for all treated wells was normalized to the well with untreated cells and data is presented as percent survival as compared to untreated. The table below summarizes the results.
# [2] = system: cynomolgus monkeys with ocular hypertension; experiment: IOP reduction in lasered ocular hypertensive monkeys; assay type: in vivo; settings: 150 μg in 30 μL drop, topical, lasered eye
# Method: The ability of compound 1 of the present invention to reduce IOP was evaluated in cynomolgus monkeys with ocular hypertension produced by previous laser trabeculoplasty in the right eye. Animals had been trained to sit in restraint chairs and conditioned to accept experimental procedures without chemical restraint. Animals were administered a 30 μL drop containing 150 μg of compound 1 dissolved in vehicle to the lasered eye. IOP was determined with a pneumatonometer after light corneal anesthesia with dilute proparacaine. The drug was dosed 35 minutes after the baseline IOP was measured.
# [3] = in vitro; versus GTN and SNAP; cited from earlier work
# c-GMP = settings: cited from earlier work
SMILES,NO-tolerance in vivo [1],RPE cytoprotection (ARPE-19 cells; 10 μM),RPE cytoprotection (ARPE-19 cells; 100 μM),"% Survival (ARPE-19 cells; compound at 100 nM, 7-ketocholesterol-treated cells)","% Survival (ARPE-19 cells; compound at 1 μM, 7-ketocholesterol-treated cells)","% Survival (ARPE-19 cells; compound at 10 μM, 7-ketocholesterol-treated cells)","% Survival (ARPE-19 cells; compound at 100 μM, 7-ketocholesterol-treated cells)",% IOP change from baseline ([2]; 1 hour after dosing),% IOP change from baseline ([2]; 3 hours after dosing),% IOP change from baseline ([2]; 6 hours after dosing),vasorelaxation efficacy [3],c-GMP concentration (c-GMP),c-GMP effect relative to GTN (c-GMP),"% Survival (ARPE-19 cells; 7-ketocholesterol 20 μM alone, 1 day)"
CC1(C)CC(O[N+](=O)[O-])CC(C)(C)N1[O] [Compound 1],do not produce NO-tolerance in vivo,significant,complete,60%,60%,75%,100%,−15.3%,−16.7%,−20.7%,superior activity,significant increase,comparable to that of GTN,–
"CC1(C)CC(CO[N+](=O)[O-])C(C)(C)N1[O] (stereo not drawn) [Compound 2, 3-Nitratomethyl-Proxyl]",do not produce NO-tolerance in vivo,–,–,–,–,–,–,–,–,–,–,–,–,–
"CC(C)CCC[C@@H](C)[C@H]1CC[C@H]2[C@@H]3C(=O)C=C4C[C@@H](O)CC[C@]4(C)[C@H]3CC[C@]12C [7-ketocholesterol, 5-CHOLESTEN-3β-OL-7-ONE, reference compound]",–,–,–,–,–,–,–,–,–,–,–,–,–,50%
